Values of other authors as cited in patent US12564552B2, “Oral product with a basic amine and an ion pairing agent” (NICOVENTURES TRADING LIMITED, priority 2021, dated 2026).

Legend:
[1] = system: human buccal tissue; conditions: nicotine solution pH=6 vs pH 8.1, perfusion cell, Adrian et al.
[2] = not given; remark: listed apart in the source

| solubility in water | solubility in fats and alcohols | chemical stability (isolated, isomerizes to trans-bixin (β-bixin)) | Structure (SMILES) | factor by which diffusion rate is reduced at pH 6 relative to pH 8.1 [1] | log Ka1 (pyridine ring nitrogen) ([2]; pyridine ring nitrogen) | log Ka2 (pyrrolidine ring nitrogen) ([2]; pyrrolidine ring nitrogen) |
| --- | --- | --- | --- | --- | --- | --- |
| water-soluble |  |  | CC(/C=C/C=C(C)/C=C/C(=O)O)=C\C=C\C=C(C)\C=C\C=C(C)\C=C\C(=O)O (stereo in doubt) [norbixin, (2E,4E,6E,8E,10E,12E,14E,16E,18E)-4,8,13,17-tetramethylicosa-2,4,6,8,10,12,14,16,18-nonaenedioic acid] |  |  |  |
| insoluble in water | soluble in fats and alcohols | chemically unstable when isolated | COC(=O)/C=C/C(C)=C\C=C\C(C)=C\C=C\C=C(C)\C=C\C=C(C)\C=C\C(=O)O [bixin, (2E,4E,6E,8E,10E,12E,14E,16Z,18E)-20-methoxy-4,8,13,17-tetramethyl-20-oxoicosa-2,4,6,8,10,12,14,16,18-nonaenoic acid] |  |  |  |
|  |  |  | CN1CCCC1c1cccnc1 (stereo not shown) [nicotine] | ~7 | 3.41 | 8.02 |
